According to PubChem BioAssay (NCI):
Values joined by “and” are separate entries in the source; they are usually repeats but may differ in a detail not shown here. Equal entries are not always repeated.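 Compound exposure: 48 hours, 5 concentrations, 96-well plates. GI50 marks 50% less growth. Definition used: TGI = concentration required for complete inhibition of growth.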

Columns and labels:
Test in all cases: DTP human tumour cell line panel, 48 h
SNB-75 CNS = system: SNB-75 CNS
SF-295 CNS = system: SF-295 CNS
M14 melanoma = system: M14 melanoma
SR leukemia = system: SR leukemia
K-562 leukemia = system: K-562 leukemia
HCC-2998 colon = system: HCC-2998 colon
HS 578T breast = system: HS 578T breast
SK-MEL-28 melanoma = system: SK-MEL-28 melanoma
786-0 renal = system: 786-0 renal
KM12 colon = system: KM12 colon
IGROV1 ovarian = system: IGROV1 ovarian
NCI-H522 lung = system: NCI-H522 lung
CCRF-CEM leukemia = system: CCRF-CEM leukemia
SF-268 CNS = system: SF-268 CNS
NCI-H226 lung = system: NCI-H226 lung
SK-OV-3 ovarian = system: SK-OV-3 ovarian
MDA-MB-435 = system: MDA-MB-435
OVCAR-8 ovarian = system: OVCAR-8 ovarian
ACHN renal = system: ACHN renal
LOX IMVI melanoma = system: LOX IMVI melanoma
NCI-H460 lung = system: NCI-H460 lung
NCI-H23 lung = system: NCI-H23 lung
TK-10 renal = system: TK-10 renal
PC-3 prostate = system: PC-3 prostate
SNB-19 CNS = system: SNB-19 CNS
OVCAR-5 ovarian = system: OVCAR-5 ovarian
HT29 colon = system: HT29 colon
MALME-3M melanoma = system: MALME-3M melanoma
A549 NSCLC = system: A549 NSCLC
OVCAR-3 ovarian = system: OVCAR-3 ovarian
MOLT-4 leukemia = system: MOLT-4 leukemia
SK-MEL-5 melanoma = system: SK-MEL-5 melanoma
NCI/ADR-RES ovarian = system: NCI/ADR-RES ovarian
OVCAR-4 ovarian = system: OVCAR-4 ovarian
UO-31 renal = system: UO-31 renal
HCT-116 colon = system: HCT-116 colon
CAKI-1 renal = system: CAKI-1 renal
MCF7 breast = system: MCF7 breast
HOP-92 NSCLC = system: HOP-92 NSCLC
HOP-62 NSCLC = system: HOP-62 NSCLC
SW-620 colon = system: SW-620 colon
U251 CNS = system: U251 CNS
T-47D breast = system: T-47D breast
SF-539 CNS = system: SF-539 CNS
RXF 393 renal = system: RXF 393 renal
HL-60(TB) leukemia = system: HL-60(TB) leukemia
SK-MEL-2 melanoma = system: SK-MEL-2 melanoma
MDA-MB-231 breast = system: MDA-MB-231 breast
A498 renal = system: A498 renal
EKVX NSCLC = system: EKVX NSCLC
RPMI-8226 leukemia = system: RPMI-8226 leukemia
UACC-62 melanoma = system: UACC-62 melanoma
BT-549 breast = system: BT-549 breast
COLO 205 colon = system: COLO 205 colon
HCT-15 colon = system: HCT-15 colon
UACC-257 melanoma = system: UACC-257 melanoma
DU-145 prostate = system: DU-145 prostate
SN12C renal = system: SN12C renal

COc1cc2c(Oc3ccc(NC(=O)C4(C(=O)Nc5ccc(F)cc5)CC4)cc3F)ccnc2cc1OCCCN1CCOCC1
GI50 (SNB-75 CNS): 175 nM and 150 nM
TGI (SNB-75 CNS): 1880 nM and 2160 nM
GI50 (SF-295 CNS): 51.9 nM and 66.3 nM
TGI (SF-295 CNS): 1260 nM and 1490 nM
GI50 (M14 melanoma): 479 nM and 540 nM
TGI (M14 melanoma): 1830 nM and 1960 nM
GI50 (SR leukemia): 932 nM and 583 nM
TGI (SR leukemia): 3450 nM and 2780 nM
GI50 (K-562 leukemia): 102 nM and 150 nM
TGI (K-562 leukemia): 1780 nM and 1330 nM
GI50 (HCC-2998 colon): 1240 nM and 1310 nM
TGI (HCC-2998 colon): 2620 nM and 4310 nM
GI50 (HS 578T breast): 2060 nM and 387 nM
GI50 (SK-MEL-28 melanoma): 1120 nM and 1250 nM
TGI (SK-MEL-28 melanoma): 2470 nM and 2690 nM
GI50 (786-0 renal): 1610 nM and 1540 nM
TGI (786-0 renal): 3110 nM and 2990 nM
GI50 (KM12 colon): 17.7 nM and 18.9 nM
TGI (KM12 colon): 1440 nM and 2280 nM
GI50 (IGROV1 ovarian): 1310 nM and 645 nM
TGI (IGROV1 ovarian): 8490 nM and 2740 nM
GI50 (NCI-H522 lung): 983 nM
TGI (NCI-H522 lung): 2870 nM
GI50 (CCRF-CEM leukemia): 531 nM and 383 nM
GI50 (SF-268 CNS): 858 nM and 1190 nM
TGI (SF-268 CNS): 2370 nM and 7010 nM
GI50 (NCI-H226 lung): 491 nM and 662 nM
TGI (NCI-H226 lung): 2070 nM and 3960 nM
GI50 (SK-OV-3 ovarian): 1810 nM and 1880 nM
TGI (SK-OV-3 ovarian): 3940 nM and 5530 nM
GI50 (MDA-MB-435): 694 nM
TGI (MDA-MB-435): 2390 nM
GI50 (OVCAR-8 ovarian): 1420 nM and 2080 nM
TGI (OVCAR-8 ovarian): 4000 nM and > 10000 nM
GI50 (ACHN renal): 558 nM and 702 nM
TGI (ACHN renal): 2330 nM and 3270 nM
GI50 (LOX IMVI melanoma): 713 nM
TGI (LOX IMVI melanoma): 1950 nM
GI50 (NCI-H460 lung): 521 nM and 575 nM
TGI (NCI-H460 lung): 2050 nM and 2510 nM
GI50 (NCI-H23 lung): 383 nM and 511 nM
TGI (NCI-H23 lung): 2410 nM and > 10000 nM
GI50 (TK-10 renal): 1030 nM and 1360 nM
TGI (TK-10 renal): 2570 nM and 4420 nM
GI50 (PC-3 prostate): 1900 nM and 1230 nM
TGI (PC-3 prostate): 14500 nM and > 10000 nM
GI50 (SNB-19 CNS): 1990 nM and 2140 nM
TGI (SNB-19 CNS): 5770 nM and > 10000 nM
GI50 (OVCAR-5 ovarian): 885 nM and 1350 nM
TGI (OVCAR-5 ovarian): 2700 nM and > 8700 nM
GI50 (HT29 colon): 387 nM
TGI (HT29 colon): 1800 nM
GI50 (MALME-3M melanoma): 635 nM and 571 nM
TGI (MALME-3M melanoma): 2510 nM and 2050 nM
GI50 (A549 NSCLC): 556 nM and 625 nM
TGI (A549 NSCLC): 1880 nM and 2200 nM
GI50 (OVCAR-3 ovarian): 1460 nM and 2250 nM
TGI (OVCAR-3 ovarian): 3360 nM and > 10000 nM
GI50 (MOLT-4 leukemia): 573 nM and 547 nM
TGI (MOLT-4 leukemia): > 24900 nM and 5450 nM
GI50 (SK-MEL-5 melanoma): 1370 nM and 1390 nM
TGI (SK-MEL-5 melanoma): 2680 nM and 2710 nM
GI50 (NCI/ADR-RES ovarian): 1980 nM
TGI (NCI/ADR-RES ovarian): > 10000 nM
GI50 (OVCAR-4 ovarian): 747 nM and 2560 nM
TGI (OVCAR-4 ovarian): 13200 nM and > 10000 nM
GI50 (UO-31 renal): 984 nM and 654 nM
TGI (UO-31 renal): 2610 nM and 2040 nM
GI50 (HCT-116 colon): 609 nM and 586 nM
TGI (HCT-116 colon): 2020 nM and 2060 nM
GI50 (CAKI-1 renal): 547 nM and 768 nM
TGI (CAKI-1 renal): 1970 nM and > 4860 nM
GI50 (MCF7 breast): 515 nM and 546 nM
TGI (MCF7 breast): 2030 nM and 3000 nM
GI50 (HOP-92 NSCLC): 243 nM and 43.3 nM
TGI (HOP-92 NSCLC): 1650 nM and 991 nM
GI50 (HOP-62 NSCLC): 798 nM and 573 nM
TGI (HOP-62 NSCLC): 2170 nM and 4150 nM
GI50 (SW-620 colon): 346 nM and 311 nM
TGI (SW-620 colon): 1850 nM and 2600 nM
GI50 (U251 CNS): 1420 nM
TGI (U251 CNS): 3320 nM
GI50 (T-47D breast): 1370 nM and 1440 nM
TGI (T-47D breast): 3630 nM and > 8020 nM
GI50 (SF-539 CNS): 288 nM and 456 nM
TGI (SF-539 CNS): 1650 nM and 1670 nM
GI50 (RXF 393 renal): 468 nM and 661 nM
TGI (RXF 393 renal): 1770 nM and 1900 nM
GI50 (HL-60(TB) leukemia): 164 nM and 389 nM
TGI (HL-60(TB) leukemia): 2020 nM and 2340 nM
GI50 (SK-MEL-2 melanoma): 1440 nM and 1630 nM
TGI (SK-MEL-2 melanoma): 2930 nM and 3740 nM
GI50 (MDA-MB-231 breast): 1330 nM and 1280 nM
TGI (MDA-MB-231 breast): 2720 nM and 2740 nM
GI50 (A498 renal): < 46.2 nM and 383 nM
TGI (A498 renal): 1240 nM and 1700 nM
GI50 (EKVX NSCLC): 1160 nM and 1930 nM
TGI (EKVX NSCLC): 4730 nM and > 10000 nM
GI50 (RPMI-8226 leukemia): 2020 nM and 1680 nM
TGI (RPMI-8226 leukemia): 5020 nM and 7070 nM
GI50 (UACC-62 melanoma): 1240 nM and 891 nM
TGI (UACC-62 melanoma): 2720 nM and 2480 nM
GI50 (BT-549 breast): 1820 nM and 2780 nM
TGI (BT-549 breast): 3930 nM and > 9510 nM
GI50 (COLO 205 colon): 281 nM and 308 nM
TGI (COLO 205 colon): 641 nM and 934 nM
GI50 (HCT-15 colon): 935 nM and 1030 nM
TGI (HCT-15 colon): 3800 nM and 4040 nM
GI50 (UACC-257 melanoma): 1190 nM
TGI (UACC-257 melanoma): 2780 nM
GI50 (DU-145 prostate): 1520 nM and 1980 nM
TGI (DU-145 prostate): 4390 nM and > 10000 nM
GI50 (SN12C renal): 266 nM and 259 nM
TGI (SN12C renal): 13300 nM and > 10000 nM
